Results as given in patent US6737383B1, “Herbicidal oxadiazolidines” (priority 1999, dated 2004).

How the values were obtained:
cocklebur = test: Test B pre/postemergence cocklebur; type: in vivo, Xanthium strumarium
Method in brief: (§1)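 Herbicidal effect was estimated by eye on a ten-point control scale after plants spent twelve to sixteen days in a greenhouse following soil or foliar treatment. Foliar sprays targeted plants at one to four leaves; all doses were formulated in a non-phytotoxic solvent with surfactant.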

surinam grass = test: Test B pre/postemergence surinam grass; type: in vivo, Brachiaria decumbens
Method in brief: as §1

rape = test: Test B pre/postemergence rape; type: in vivo, Brassica napus
Method in brief: as §1

smallflower flatsedge = test: Test B flood test smallflower flatsedge; type: in vivo, Cyperus difformis; details: for S. Flatsedge plant response rating: scale of 0 to 10 where 0 is no effect and 10 is complete control
Method in brief: (§2)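 Each value is a visual injury score relative to controls, with 10 meaning complete control and 0 no effect. Evaluation took place twelve to sixteen days after the 2-leaf-stage plants were treated and kept in the greenhouse.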

soybean = test: Test B pre/postemergence soybean; type: in vivo, Glycine max
Method in brief: as §1

bamyardgrass = test: Test B flood test barnyardgrass; type: in vivo, Echinochloa crus-galli
Method in brief: as §2

duck salad = test: Test B flood test duck salad; type: in vivo, Heteranthera limosa
Method in brief: as §2

blackgrass = test: Test B pre/postemergence blackgrass; type: in vivo, Alopecurus myosuroides
Method in brief: as §1

wheat = test: Test B pre/postemergence wheat; type: in vivo, Triticum aestivum
Method in brief: as §1

crabgrass = test: Test B pre/postemergence crabgrass; type: in vivo, Digitaria sanguinalis
Method in brief: as §1

giant foxtail = test: Test B pre/postemergence giant foxtail; type: in vivo, Setaria faberii
Method in brief: as §1

pigweed = test: Test B pre/postemergence pigweed; type: in vivo, Amaranthus retroflexus
Method in brief: as §1

purple nutsedge = test: Test B pre/postemergence purple nutsedge; type: in vivo, Cyperus rotundus
Method in brief: as §1

rice = test: Test B flood test rice; type: in vivo, Oryza sativa
Method in brief: as §2

corn = test: Test B pre/postemergence corn; type: in vivo, Zea mays
Method in brief: as §1

sugar beet = test: Test B pre/postemergence sugar beet; type: in vivo, Beta vulgaris
Method in brief: as §1

[1] = Postemergence, Rate 125 g/ha, scale of 0 to 10 where 0 is no effect and 10 is complete control
[2] = Preemergence, Rate 62 g/ha, scale 0 to 10 (0 no effect, 10 complete control)
[3] = Preemergence, Rate 250 g/ha, scale 0 to 10, 0 is no effect, 10 is complete control
[4] = Preemergence, Rate 500 g/ha, scale 0 to 10 (0 no effect, 10 complete control)
[5] = Rate 62 g/ha, Postemergence, scale of 0 to 10 where 0 is no effect and 10 is complete control
[6] = Rate 250 g/ha, Postemergence, scale 0 to 10, 0 is no effect, 10 is complete control
[7] = Rate 500 g/ha, Postemergence, scale 0 to 10
[8] = Preemergence, Rate 125 g/ha, 0 is no effect, 10 is complete control
[9] = Rate 250 g/ha, Postemergence (flood test), scale 0 to 10, 0 is no effect, 10 is complete control
[10] = Postemergence (flood test species), Rate 125 g/ha, scale of 0 to 10 where 0 is no effect and 10 is complete control
[11] = Rate 31 g/ha, Postemergence section (flood test species), scale 0 to 10
[12] = Rate 62 g/ha, Postemergence section, flood test species, scale of 0 to 10 where 0 is no effect and 10 is complete control

Compound: CC(C)N(C(=O)n1oc(=O)n(C)c1=O)c1ccc(F)cc1 [Compound 138]
- Cocklebur plant response rating (cocklebur; [1]): 0
- Cocklebur plant response rating (cocklebur; [2]): 0
- Cocklebur plant response rating (cocklebur; [3]): 0
- Cocklebur plant response rating (cocklebur; [4]): 0
- Cocklebur plant response rating (cocklebur; [5]): 0
- Plant response rating, Cocklebur (cocklebur; [6]): 2
- Cocklebur plant response rating (cocklebur; [7]): 3
- B. signalgrass plant response rating (surinam grass; [1]): 7
- B. signalgrass plant response rating (surinam grass; [2]): 2
- B. signalgrass plant response rating (0 to 10 scale) (surinam grass; [8]): 4
- B. signalgrass plant response rating (surinam grass; [3]): 6
- B. signalgrass plant response rating (surinam grass; [4]): 9
- B. signalgrass plant response rating (surinam grass; [5]): 5
- Plant response rating, B. signalgrass (surinam grass; [6]): 8
- B. signalgrass plant response rating (surinam grass; Rate 500 g/ha, Postemergence, scale of 0 to 10 where 0 is no effect and 10 is complete control): 8
- Rape plant response rating (rape; [1]): 0
- Rape plant response rating (rape; [2]): 7
- Rape plant response rating (0 to 10 scale) (rape; [8]): 9
- Rape plant response rating (rape; [3]): 10
- Rape plant response rating (rape; [4]): 10
- Rape plant response rating (rape; [5]): 0
- Plant response rating, Rape (rape; [6]): 2
- Rape plant response rating (rape; [7]): 7
- S. Flatsedge plant response rating (smallflower flatsedge; Postemergence (flood test species), Rate 125 g/ha): 0
- S. Flatsedge plant response rating (smallflower flatsedge; Rate 62 g/ha, Postemergence section, flood test species): 0
- Plant response rating, S. Flatsedge (smallflower flatsedge; [9]): 7
- Soybean plant response rating (soybean; [1]): 3
- Soybean plant response rating (soybean; [2]): 0
- Soybean plant response rating (0 to 10 scale) (soybean; [8]): 4
- Soybean plant response rating (soybean; [3]): 5
- Soybean plant response rating (soybean; [4]): 8
- Soybean plant response rating (soybean; [5]): 2
- Plant response rating, Soybean (soybean; [6]): 4
- Soybean plant response rating (soybean; [7]): 4
- Barnyardgrass plant response rating (bamyardgrass; [10]): 0
- Barnyardgrass plant response rating (bamyardgrass; [11]): 0
- Barnyardgrass plant response rating (bamyardgrass; [12]): 0
- Plant response rating, Barnyardgrass (bamyardgrass; [9]): 8
- Ducksalad plant response rating (duck salad; [10]): 0
- Ducksalad plant response rating (duck salad; [11]): 0
- Ducksalad plant response rating (duck salad; [12]): 0
- Plant response rating, Ducksalad (duck salad; [9]): 2
- Blackgrass plant response rating (blackgrass; [1]): 9
- Blackgrass plant response rating (blackgrass; [2]): 9
- Blackgrass plant response rating (0 to 10 scale) (blackgrass; [8]): 9
- Blackgrass plant response rating (blackgrass; [3]): 9
- Blackgrass plant response rating (blackgrass; [4]): 9
- Blackgrass plant response rating (blackgrass; [5]): 7
- Plant response rating, Blackgrass (blackgrass; [6]): 9
- Blackgrass plant response rating (blackgrass; [7]): 9
- Wheat plant response rating (wheat; [1]): 8
- Wheat plant response rating (wheat; [2]): 3
- Wheat plant response rating (0 to 10 scale) (wheat; [8]): 5
- Wheat plant response rating (wheat; [3]): 6
- Wheat plant response rating (wheat; [4]): 9
- Wheat plant response rating (wheat; [5]): 3
- Plant response rating, Wheat (wheat; [6]): 8
- Wheat plant response rating (wheat; [7]): 8
- Crabgrass plant response rating (crabgrass; [1]): 9
- Crabgrass plant response rating (crabgrass; [2]): 9
- Crabgrass plant response rating (0 to 10 scale) (crabgrass; [8]): 9
- Crabgrass plant response rating (crabgrass; [3]): 10
- Crabgrass plant response rating (crabgrass; [4]): 10
- Crabgrass plant response rating (crabgrass; [5]): 8
- Plant response rating, Crabgrass (crabgrass; [6]): 9
- Crabgrass plant response rating (crabgrass; [7]): 9
- Giant foxtail plant response rating (giant foxtail; [1]): 9
- Giant foxtail plant response rating (giant foxtail; [2]): 7
- Giant foxtail plant response rating (0 to 10 scale) (giant foxtail; [8]): 9
- Giant foxtail plant response rating (giant foxtail; [3]): 10
- Giant foxtail plant response rating (giant foxtail; [4]): 10
- Giant foxtail plant response rating (giant foxtail; [5]): 9
- Plant response rating, Giant foxtail (giant foxtail; [6]): 9
- Giant foxtail plant response rating (giant foxtail; [7]): 9
- Redroot pigweed plant response rating (pigweed; [1]): 5
- Redroot pigweed plant response rating (pigweed; [2]): 9
- Redroot pigweed plant response rating (0 to 10 scale) (pigweed; [8]): 10
- Redroot pigweed plant response rating (pigweed; [3]): 10
- Redroot pigweed plant response rating (pigweed; [4]): 10
- Redroot pigweed plant response rating (pigweed; [5]): 3
- Plant response rating, Redroot pigweed (pigweed; [6]): 7
- Redroot pigweed plant response rating (pigweed; [7]): 8
- Nutsedge plant response rating (purple nutsedge; [1]): 5
- Nutsedge plant response rating (purple nutsedge; [2]): 2
- Nutsedge plant response rating (0 to 10 scale) (purple nutsedge; [8]): 5
- Nutsedge plant response rating (purple nutsedge; [3]): 7
- Nutsedge plant response rating (purple nutsedge; [4]): 7
- Nutsedge plant response rating (purple nutsedge; [5]): 4
- Plant response rating, Nutsedge (purple nutsedge; [6]): 6
- Rice plant response rating (rice; [10]): 7
- Rice plant response rating (rice; [11]): 0
- Rice plant response rating (rice; [12]): 0
- Plant response rating, Rice (rice; [9]): 8
- Corn plant response rating (corn; [1]): 4
- Corn plant response rating (corn; [2]): 0
- Corn plant response rating (0 to 10 scale) (corn; [8]): 3
- Corn plant response rating (corn; [3]): 8
- Corn plant response rating (corn; [4]): 9
- Corn plant response rating (corn; [5]): 0
- Plant response rating, Corn (corn; [6]): 7
- Corn plant response rating (corn; [7]): 7
- Sugarbeets plant response rating (sugar beet; [1]): 0
- Sugarbeets plant response rating (sugar beet; [2]): 9
- Sugarbeets plant response rating (0 to 10 scale) (sugar beet; [8]): 10
- Sugarbeets plant response rating (sugar beet; [3]): 10
- Sugarbeets plant response rating (sugar beet; [4]): 10
- Sugarbeets plant response rating (sugar beet; [5]): 0
- Plant response rating, Sugarbeets (sugar beet; [6]): 6
- Sugarbeets plant response rating (sugar beet; [7]): 8
